Among the data in US11040035B2, “3-oxo-2,6-diphenyl-2,3-dihydropyridazine-4-carboxamides” (BAYER PHARMA AKTIENGESELLSCHAFT, priority 2016, dated 2021) are IC50 values, retold here.

Series [1] deals with T1, AHR (Homo sapiens, UniProt P35869).
T1 sequence (P35869 11-848): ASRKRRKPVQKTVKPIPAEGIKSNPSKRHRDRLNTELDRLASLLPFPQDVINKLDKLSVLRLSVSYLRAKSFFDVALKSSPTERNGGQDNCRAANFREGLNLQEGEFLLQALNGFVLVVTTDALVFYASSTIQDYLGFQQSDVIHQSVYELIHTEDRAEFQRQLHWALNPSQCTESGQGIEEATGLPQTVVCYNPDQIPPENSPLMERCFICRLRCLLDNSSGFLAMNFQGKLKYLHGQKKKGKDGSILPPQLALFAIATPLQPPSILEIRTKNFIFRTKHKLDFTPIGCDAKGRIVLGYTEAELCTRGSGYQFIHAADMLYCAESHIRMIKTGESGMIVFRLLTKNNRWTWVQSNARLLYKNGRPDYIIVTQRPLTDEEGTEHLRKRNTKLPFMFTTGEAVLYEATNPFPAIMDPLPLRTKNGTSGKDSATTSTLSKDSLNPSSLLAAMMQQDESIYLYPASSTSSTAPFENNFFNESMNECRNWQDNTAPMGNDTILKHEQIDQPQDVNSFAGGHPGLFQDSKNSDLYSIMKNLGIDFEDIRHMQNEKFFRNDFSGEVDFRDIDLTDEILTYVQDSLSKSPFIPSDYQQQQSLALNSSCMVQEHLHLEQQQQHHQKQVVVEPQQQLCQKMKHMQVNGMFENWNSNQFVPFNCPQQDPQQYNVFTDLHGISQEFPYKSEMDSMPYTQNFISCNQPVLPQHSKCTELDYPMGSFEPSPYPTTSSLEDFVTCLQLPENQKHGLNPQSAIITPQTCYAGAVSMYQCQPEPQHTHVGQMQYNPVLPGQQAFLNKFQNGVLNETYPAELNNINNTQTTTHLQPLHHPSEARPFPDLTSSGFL
Put plainly: In vitro assay 2: agonism in human cell line (transactivation assay).

The subject of series [2] is AHR-regulated gene CYP1A1. Nature of the series: In vitro assay 3: AHR-regulated CYP1A1 expression in human cell line (U937, qPCR).
Protocol: In Vitro Assay 3: AHR-Regulated CYP1A1 Expression in Human Cell Line
To assess the AHR inhibitory activity of the substances described in this application, the ability thereof to antagonise ligand-induced AHR gene regulation in a dose-dependent manner was quantified. For this purpose, quantitative PCR analysis was used to determine expression of the AHR-regulated gene CYP1A1 in a human monocytic U937 cell line upon stimulation with 200 μM KA in the presence and absence of AHR inhibitor. U937 cells were sown at a concentration of 2×10^5 cells/well in 100 ul of growth medium (RPMI 1640, 20% FCS) in 96-well microtitre plates. CYP1A1 expression was induced with 200 μM KA (positive control) in the presence or absence of the substances for 6 hours. Human U937 cells were typically incubated with eight different concentrations of the substances (1 nM, 3 nM, 10 nM, 30 nM, 100 nM, 300 nM, 1 μM and 3 μM) and analyzed in duplicate on the same microtitre plate. After stimulation, cells were lysed with Nucleic Acid Lysis Solution (#4305895, Applied Biosystems) and RNA was isolated using the 6100 Nucleic Acid Preparation Station (Applied Biosystems) and reverse-transcribed to cDNA using SuperScript VILO cDNA synthesis kit (#11754-250, Invitrogen). Unstimulated cells were used as the negative control. Taqman probes for human CYP1A1 (Hs01054797_g1) and human HPRT (Hs02800695_m1) were used to analyze fold expression of CYP1A1 of HPRT. Quantitation was performed on a Taqman SDS7900HT.
Series [3] addresses T1, AHR. Nature of the series: In vitro assay 1: antagonism in human cell line (transactivation assay, kynurenic acid prestimulated). The settings on record: Assay 1: AHR-luc Hum Antagonism IC50 [M], 150 μM kynurenic acid, 20 hours, firefly luciferase.
The mark [4] stands for this setting: Assay 2: AHR-luc Hum Agonism IC50 [M], no kynurenic acid, 20 hours, firefly luciferase.
Setting [5] is: Homo sapiens, U-937, 6 h, read-out: Assay 3: Hum CYP1A1 Antagonism IC50 [M], U937 cells, 200 μM KA, 6 hours, qPCR.
[6] abbreviates: read-out: Assay 2: AHR-luc Hum Agonism IC50, no kynurenic acid, 20 hours, firefly luciferase.
[7] abbreviates: read-out: Assay 3: Hum CYP1A1 Antagonism IC50, U937 cells, 200 μM KA, 6 hours, qPCR.

Read-outs that look alike come from different tables or passages of the source.

As for `O=C(NCC1(O)CCC1)c1cc(-c2ccc(Cl)cc2)nn(-c2cccc(F)c2)c1=O` [Example 212, 6-(4-Chlorophenyl)-2-(3-fluorophenyl)-N-[(1-hydroxycyclobutyl)methyl]-3-oxo-2,3-dihydropyridazine-4-carboxamide], the concentration for half-maximal inhibition (IC50) at AHR [1] (setting [4]) is > 2e-05 M; in series [2] (setting [5]), 4.92e-08 M; against AHR [3] it was 3.59e-08 M.
With `C[C@H](CO)CNC(=O)c1cc(-c2ccc(C(F)(F)F)cc2)nn(-c2cccc(F)c2)c1=O` [Example 246, (−)-2-(3-Fluorophenyl)-N-[(2S)-3-hydroxy-2-methylpropyl]-3-oxo-6-[4-(trifluoromethyl)phenyl]-2,3-dihydropyridazine-4-carboxamide], the values for the IC50 (against AHR [1] (setting [4]); in series [2] (setting [5]); against AHR [3]) were > 2e-05 M, 4.05e-08 M and 2.78e-08 M, respectively.
On to `O=C(NC(CO)C1CCOC1)c1cc(-c2ccc(Cl)c(F)c2)nn(-c2cccc(F)c2)c1=O` (single isomer, unassigned) [Example 293, 6-(4-Chloro-3-fluorophenyl)-2-(3-fluorophenyl)-N-[2-hydroxy-1-(tetrahydrofuran-3-yl)ethyl]-3-oxo-2,3-dihydropyridazine-4-carboxamide], for which the half-inhibitory concentration (IC50) on AHR [1] (setting [6]) is > 2e-05 M; in series [2] (setting [5]) it was 6.98e-08 M; against AHR [3], 4.92e-08 M.
With `O=C(NCC(O)C(F)(F)F)c1cc(-c2ccc(OC(F)(F)F)cc2)nn(-c2cccc(F)c2)c1=O` (single isomer, unassigned) [Example 183, 2-(3-Fluorophenyl)-3-oxo-N-(3,3,3-trifluoro-2-hydroxypropyl)-6-[4-(trifluoromethoxy)phenyl]-2,3-dihydropyridazine-4-carboxamide], the values for the IC50 (on AHR [1] (setting [4]); in series [2] (setting [7]); against AHR [3]) were > 2e-05 M, 4.14e-08 M and 3.78e-08 M, respectively.
On to `O=C(N[C@H]1CC[C@@H]1O)c1cc(-c2ccc(Cl)cc2)nn(-c2cccc(F)c2)c1=O` (single isomer, unassigned) [Example 336, (+)-6-(4-chlorophenyl)-2-(3-fluorophenyl)-N-(trans-2-hydroxycyclobutyl)-3-oxo-2,3-dihydropyridazine-4-carboxamide], for which the 50% inhibitory concentration (IC50) on AHR [1] (setting [6]) is > 2e-05 M; in series [2] (setting [5]) it was 2e-06 M; on AHR [3] it was 4.02e-08 M.
For `CC(C)[C@@H](CO)NC(=O)c1cc(-c2ccc(Cl)cc2)nn(-c2cccc(C#N)c2)c1=O` [Example 361, 6-(4-chlorophenyl)-2-(3-cyanophenyl)-N-[(2S)-1-hydroxy-3-methylbutan-2-yl]-3-oxo-2,3-dihydropyridazine-4-carboxamide], the figures for the IC50 (against AHR [1] (setting [4]); in series [2] (setting [5]); against AHR [3]) were > 2e-05 M, 2.96e-07 M and 1.66e-07 M, respectively.
On to `O=C(N[C@@H]1COC[C@@H]1O)c1cc(-c2ccc(C(F)(F)F)cc2)nn(-c2cccc(F)c2)c1=O` (single isomer, unassigned) [Example 345, (−)-2-(3-fluorophenyl)-N-(cis-4-hydroxytetrahydrofuran-3-yl)-3-oxo-6-[4-(trifluoromethyl)phenyl]-2,3-dihydropyridazine-4-carboxamide], for which the concentration for half-maximal inhibition (IC50) on AHR [1] (setting [6]) is > 2e-05 M; in series [2] (setting [7]) it was 5.4e-08 M; against AHR [3], 1.58e-08 M.
For `CC(NC(=O)c1cc(-c2ccc(Cl)cc2)nn(-c2cccc(F)c2)c1=O)C(O)C(F)(F)F` (stereo not drawn) [Example 218, Stereoisomer no. 1 of 6-(4-chlorophenyl)-2-(3-fluorophenyl)-3-oxo-N-(4,4,4-trifluoro-3-hydroxybutan-2-yl)-2,3-dihydropyridazine-4-carboxamide], the IC50 was > 2e-05 M on AHR [1] (setting [6]), 1.51e-07 M in series [2] (setting [5]) and 6.88e-08 M on AHR [3].
In the case of `CC(NC(=O)c1cc(-c2ccc(Cl)cc2)nn(-c2cccc(F)c2)c1=O)C(C)(C)O` (stereo not drawn) [Example 281, 6-(4-Chlorophenyl)-2-(3-fluorophenyl)-N-(3-hydroxy-3-methylbutan-2-yl)-3-oxo-2,3-dihydropyridazine-4-carboxamide], the IC50 against AHR [1] (setting [4]) was > 2e-05 M; in series [2] (setting [5]), 7.59e-08 M; against AHR [3], 2.2e-08 M.
In the case of `COc1ccc(-c2cc(C(=O)NC(CO)C(F)(F)F)c(=O)n(-c3cccc(F)c3)n2)cc1` (single isomer, unassigned) [Example 101, 2-(3-fluorophenyl)-6-(4-methoxyphenyl)-3-oxo-N-(1,1,1-trifluoro-3-hydroxypropan-2-yl)-2,3-dihydropyridazine-4-carboxamide], the IC50 is > 2e-05 M against AHR [1] (setting [4]), 1.88e-08 M in series [2] (setting [7]) and 1.24e-08 M against AHR [3].
Take `O=C(NCC(O)C(F)(F)F)c1cc(-c2ccc(OC(F)(F)F)cc2)nn(-c2cccc(F)c2)c1=O` (stereo not drawn) [Example 182, 2-(3-Fluorophenyl)-3-oxo-N-(3,3,3-trifluoro-2-hydroxypropyl)-6-[4-(trifluoromethoxy)phenyl]-2,3-dihydropyridazine-4-carboxamide]: the IC50 was > 2e-05 M at AHR [1] (setting [4]), 5.9e-08 M in series [2] (setting [5]) and 3.41e-08 M against AHR [3].
Take `CC(CCO)NC(=O)c1cc(-c2ccc(C(F)(F)F)cc2)nn(-c2cccc(F)c2)c1=O` (single isomer, unassigned; (-)) [Example 255, (−)-2-(3-Fluorophenyl)-N-(4-hydroxybutan-2-yl)-3-oxo-6-[4-(trifluoromethyl)phenyl]-2,3-dihydropyridazine-4-carboxamide]: the IC50 at AHR [1] (setting [6]) was > 2e-05 M; in series [2] (setting [7]) it was 3.89e-07 M; against AHR [3], 1.09e-07 M.
For `O=C(N[C@H](CO)Cc1ccccc1)c1cc(-c2ccc(C(F)(F)F)cc2)nn(-c2cccc(F)c2)c1=O` [Example 251, 2-(3-Fluorophenyl)-N-[(2S)-1-hydroxy-3-phenylpropan-2-yl]-3-oxo-6-[4-(trifluoromethyl)phenyl]-2,3-dihydropyridazine-4-carboxamide], the values for the half-inhibitory concentration (IC50) (on AHR [1] (setting [4]); in series [2] (setting [5]); against AHR [3]) were > 2e-05 M, 3.67e-08 M and 5.09e-06 M, respectively.
The corresponding values for `COC[C@H](CO)NC(=O)c1cc(-c2ccc(Cl)cc2)nn(-c2cccc(F)c2)c1=O` [Example 229, 6-(4-Chlorophenyl)-2-(3-fluorophenyl)-N-[(2S)-1-hydroxy-3-methoxypropan-2-yl]-3-oxo-2,3-dihydropyridazine-4-carboxamide] are > 2e-05 M, 2e-06 M and 1.5e-07 M.
For `Cc1cccc(-n2nc(-c3ccc(Cl)cc3)cc(C(=O)N[C@H](CO)C(C)C)c2=O)c1` [Example 365, 6-(4-chlorophenyl)-N-[(2S)-1-hydroxy-3-methylbutan-2-yl]-2-(3-methylphenyl)-3-oxo-2,3-dihydropyridazine-4-carboxamide], the concentration for half-maximal inhibition (IC50) is > 2e-05 M against AHR [1] (setting [4]), > 1e-06 M in series [2] (setting [5]) and 4.18e-07 M at AHR [3].
The corresponding values for `O=C(NCCCO)c1cc(-c2ccc(Cl)cc2)nn(-c2cccc(F)c2)c1=O` [Example 189, 6-(4-Chlorophenyl)-2-(3-fluorophenyl)-N-(3-hydroxypropyl)-3-oxo-2,3-dihydropyridazine-4-carboxamide] are > 2e-05 M, 2e-06 M and 1.86e-07 M.
As for `Cc1ccc(-c2cc(C(=O)NCC(O)C(C)C)c(=O)n(-c3cc(F)cc(F)c3)n2)cc1` (single isomer, unassigned) [Example 57, 2-(3,5-Difluorophenyl)-N-(2-hydroxy-3-methylbutyl)-6-(4-methylphenyl)-3-oxo-2,3-dihydropyridazine-4-carboxamide], the IC50 is > 2e-05 M against AHR [1] (setting [4]), 3.83e-08 M in series [2] (setting [7]) and 3.49e-08 M at AHR [3].
On to `O=C(NC(CO)C(F)(F)F)c1cc(-c2ccc(Cl)cc2)nn(-c2cccc(F)c2)c1=O` (stereo not drawn) [Example 97, 6-(4-Chlorophenyl)-2-(3-fluorophenyl)-3-oxo-N-(1,1,1-trifluoro-3-hydroxypropan-2-yl)-2,3-dihydropyridazine-4-carboxamide], for which the values for the IC50 (on AHR [1] (setting [4]); in series [2] (setting [5]); on AHR [3]) were > 2e-05 M, 1.63e-08 M and 1.5e-08 M, respectively.
Taken in the same sequence, the figures for `COC[C@@H](CO)NC(=O)c1cc(-c2ccc(C(F)(F)F)cc2)nn(-c2cccc(F)c2)c1=O` [Example 258, (−)-2-(3-Fluorophenyl)-N-[(2R)-1-hydroxy-3-methoxypropan-2-yl]-3-oxo-6-[4-(trifluoromethyl)phenyl]-2,3-dihydropyridazine-4-carboxamide] were > 2e-05 M, 3.71e-08 M and 3.01e-08 M.
